From patent US20240148648A1, “SUSTAINED RELEASE THERMOSETTING GELS COMPRISING ANESTHETIC DRUGS AND THE METHODS OF MAKING THE SAME” (Pacira Therapeutics, Inc., priority 2021, published 2024)
≈ marks a conversion by molar mass, not a printed value.

Legend:
[1] = Rheological analysis of hydrogel formulations (CGT, onset temperature, max G′); type: physicochemical; details: compared to the vehicle
Description: PEG 400 was used as a co-solvent to further enhance solubility of the active in aqueous media and to decrease the gelation temperature to be close to but below body temperature. Rheological properties including critical gelation temperature (CGT), onset temperature, and elastic (G′) and viscous (G″) moduli were used in conjunction with visual and IVR experiments to analyze the impact of different formulation component compositions and concentrations on the suitability of the formulation in an extended-release postsurgical pain management indication. […] The onset temperature refers to the temperature at which the viscous moduli begins to increase in rheometry.

physchem = details: for solubility: organic solvent or mixture
Experimental: In order to determine a suitable solvent, the solubility of all three APIs were determined in dimethyl sulfoxide, ethyl acetate, methylene chloride (DCM), benzyl alcohol, and dimethylacetamide (DMA).

[2] = In vitro release (IVR) at 37° C. in surfactant-containing media; type: physicochemical; details: cumulative drug release in vitro
Experimental: The formulations that transitioned only to a viscous liquid (and not an opaque depot) also dissolved with the addition of media in in vitro release (IVR) studies. Such formulations were not further characterized for IVR profile. IVR was conducted by placing an aliquot of formulation into a 50 mL conical tube placed in a 37° C. water bath on a shaker. The formulation was left to gel before surfactant-containing media was slowly added as not to disturb any formed depot.

SMILES | Impact of drug on gelation properties of the formulation [1] | Solubility in DCM (physchem) | solubility (physchem) [mg/mL] | In vitro release profile (in words) [2]
CCCCN1CCCCC1C(=O)Nc1c(C)cccc1C (stereo not drawn) [bupivacaine, 1-butyl-N-(2,6-dimethylphenyl)piperidine-2-carboxamide] | slight impact on the onset temperatures | solubilized bupivacaine but did not maintain adequate drug solubility when mixed with the polymer system | 200 (≈ 693 mM) | 
CCCN1CCCC[C@H]1C(=O)Nc1c(C)cccc1C [ropivacaine, (2S)—N-(2,6-dimethylphenyl)-1-propylpiperidine-2-carboxamide] | slight decrease on the onset temperatures and max G′ values |  | 80 (≈ 292 mM) | 
CCN(CC)CC(=O)Nc1c(C)cccc1C [lidocaine, 2-(diethylamino)-N-(2,6-dimethylphenyl)acetamide] |  |  |  | faster drug release
